Measured values taken from PubChem BioAssay AID2060484 (Molecular Pharmacology Branch, DTP, NCI, 2025).
pIC50: −log10 of the molar value.

Test system: SUM149PT spheroids with HUVEC/MSC, viability
Test: Anticancer human tumor SUM149PT cell line growth inhibition [GQUAD];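 also: spheroids exposed to drugs for seven days before readout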;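 as to viability, T/C: percent viability relative to DMSO vehicle control taken as 100%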
Conditions: for pIC50: curve of first compound; for viability, T/C: stronger effect = lower value
Procedure, shortened: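 Tumor cells were grown as complex spheroids with HUVEC endothelial cells and mesenchymal stem cells as stroma. G-quadruplex stabilizers were combined with targeted agents over half-log dilutions from near the clinical Cmax, or from 10 microM.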

[1] = second compound 0.0316 µM, first compound 0.0316 µM
[2] = second compound 0.0316 µM, first compound 0.1 µM
[3] = second compound 0.0316 µM, first compound 0.316 µM
[4] = second compound 0.0316 µM, first compound 1 µM
[5] = second compound 0.0316 µM, first compound 3.16 µM
[6] = second compound 0.0316 µM, first compound 10 µM
[7] = second compound 0.1 µM, first compound 0.0316 µM
[8] = second compound 0.1 µM, first compound 0.1 µM
[9] = second compound 0.1 µM, first compound 0.316 µM
[10] = second compound 0.1 µM, first compound 1 µM
[11] = second compound 0.1 µM, first compound 3.16 µM
[12] = second compound 0.1 µM, first compound 10 µM
[13] = second compound 0.316 µM, first compound 0.0316 µM
[14] = second compound 0.316 µM, first compound 0.1 µM
[15] = second compound 0.316 µM, first compound 0.316 µM
[16] = second compound 0.316 µM, first compound 1 µM
[17] = second compound 0.316 µM, first compound 3.16 µM
[18] = second compound 0.316 µM, first compound 10 µM
[19] = second compound 1 µM, first compound 0.0316 µM
[20] = second compound 1 µM, first compound 0.1 µM
[21] = second compound 1 µM, first compound 0.316 µM
[22] = second compound 1 µM, first compound 1 µM
[23] = second compound 1 µM, first compound 3.16 µM
[24] = second compound 1 µM, first compound 10 µM
[25] = second compound 3.16 µM, first compound 0.0316 µM
[26] = second compound 3.16 µM, first compound 0.1 µM
[27] = second compound 3.16 µM, first compound 0.316 µM
[28] = second compound 3.16 µM, first compound 1 µM
[29] = second compound 3.16 µM, first compound 3.16 µM
[30] = second compound 3.16 µM, first compound 10 µM
[31] = second compound 10 µM, first compound 0.0316 µM
[32] = second compound 10 µM, first compound 0.1 µM
[33] = second compound 10 µM, first compound 0.316 µM
[34] = second compound 10 µM, first compound 1 µM
[35] = second compound 10 µM, first compound 3.16 µM
[36] = second compound 10 µM, first compound 10 µM

Work on `Nc1ccn(C2OC(CO)C(O)C2(F)F)c(=O)n1` (stereo not drawn) + CN(C)c1ccc(Nc2c3ccc(NC(=O)CCN4CCCC4)cc3nc3cc(NC(=O)CCN4CCCC4)ccc23)cc1 yielded a pIC50 (second compound 0.0316 µM) of 6.96, a pIC50 (second compound 0.1 µM) of 6.76 and a pIC50 (second compound 0.316 µM) of 6.89. For the same molecule, the pIC50 (second compound 1 µM) was 7.02, the pIC50 (second compound 3.16 µM) was 7.20 and the pIC50 (second compound 10 µM) was 7.38. For the same molecule, the viability, T/C [1] was 87.9%, the viability, T/C [2] was 51% and the viability, T/C [3] was 34.6%. It also gave a viability, T/C [4] of 27.2%, a viability, T/C [5] of 25.9% and a viability, T/C [6] of 20.8%. For the same molecule, the viability, T/C [7] was 80.2%, the viability, T/C [8] was 59.7% and the viability, T/C [9] was 39.6%. For the same molecule, the viability, T/C [10] was 26.7%, the viability, T/C [11] was 23.7% and the viability, T/C [12] was 20.8%. For the same molecule, the viability, T/C [13] was 68.1%, the viability, T/C [14] was 55.3% and the viability, T/C [15] was 34.7%. The viability, T/C [16] was 26.6%, the viability, T/C [17] was 25.6% and the viability, T/C [18] was 15.8%. It also gave a viability, T/C [19] of 65.8%, a viability, T/C [20] of 51.2% and a viability, T/C [21] of 32.7%. The viability, T/C [22] was 27.9%, the viability, T/C [23] was 21.4% and the viability, T/C [24] was 16.5%. The viability, T/C [25] was 65.4%, the viability, T/C [26] was 39.8% and the viability, T/C [27] was 24.3%. The viability, T/C [28] was 21.6%, the viability, T/C [29] was 17.8% and the viability, T/C [30] was 14.8%. The viability, T/C [31] was 55.1%, the viability, T/C [32] was 35.7% and the viability, T/C [33] was 25%. For the same molecule, the viability, T/C [34] was 20.9%, the viability, T/C [35] was 18.8% and the viability, T/C [36] was 13.4%.

`COc1cccc2c1C(=O)c1c(O)c3c(c(O)c1C2=O)CC(O)(C(=O)CO)CC3OC1CC(N)C(O)C(C)O1` (stereo not drawn) + CN(C)c1ccc(Nc2c3ccc(NC(=O)CCN4CCCC4)cc3nc3cc(NC(=O)CCN4CCCC4)ccc23)cc1 was tested, and the pIC50 (second compound 0.0316 µM) was 6.55, the pIC50 (second compound 0.1 µM) was 6.59 and the pIC50 (second compound 0.316 µM) was 6.56. For the same molecule, the pIC50 (second compound 1 µM) was 6.80, the pIC50 (second compound 3.16 µM) was 6.62 and the pIC50 (second compound 10 µM) was 6.66. The viability, T/C [1] was 102%, the viability, T/C [2] was 67.8% and the viability, T/C [3] was 52.5%. For the same molecule, the viability, T/C [4] was 27.3%, the viability, T/C [5] was 5.04% and the viability, T/C [6] was 1.9%. It also gave a viability, T/C [7] of 97.9%, a viability, T/C [8] of 67.9% and a viability, T/C [9] of 48.2%. The viability, T/C [10] was 27.4%, the viability, T/C [11] was 2.62% and the viability, T/C [12] was 0.68%. The viability, T/C [13] was 79.5%, the viability, T/C [14] was 67.5% and the viability, T/C [15] was 46.9%. The viability, T/C [16] was 25.2%, the viability, T/C [17] was 2.96% and the viability, T/C [18] was 1.86%. The viability, T/C [19] was 73.5%, the viability, T/C [20] was 53.2% and the viability, T/C [21] was 42.5%. For the same molecule, the viability, T/C [22] was 23.4%, the viability, T/C [23] was 3.28% and the viability, T/C [24] was 1.27%. For the same molecule, the viability, T/C [25] was 71%, the viability, T/C [26] was 58.4% and the viability, T/C [27] was 48.1%. The viability, T/C [28] was 24.1%, the viability, T/C [29] was 4.84% and the viability, T/C [30] was 2.15%. The viability, T/C [31] was 78.9%, the viability, T/C [32] was 59.2% and the viability, T/C [33] was 45.6%. The viability, T/C [34] was 28.1%, the viability, T/C [35] was 4% and the viability, T/C [36] was 2.22%.

With `CC(C)n1c(=O)n(C)c2cnc3cc(F)c(-c4ccc(OCCCN5CCCCC5)nc4)cc3c21` + CN(C)c1ccc(Nc2c3ccc(NC(=O)CCN4CCCC4)cc3nc3cc(NC(=O)CCN4CCCC4)ccc23)cc1 the pIC50 (second compound 0.0316 µM) was < 5.00, the pIC50 (second compound 0.1 µM) was < 5.00 and the pIC50 (second compound 0.316 µM) was < 5.00. For the same molecule, the pIC50 (second compound 1 µM) was < 5.00, the pIC50 (second compound 3.16 µM) was 5.05 and the pIC50 (second compound 10 µM) was 5.93. The viability, T/C [1] was 101%, the viability, T/C [2] was 88.5% and the viability, T/C [3] was 95%. The viability, T/C [4] was 99.9%, the viability, T/C [5] was 95.8% and the viability, T/C [6] was 68.2%. It also gave a viability, T/C [7] of 98.6%, a viability, T/C [8] of 90.2% and a viability, T/C [9] of 96.3%. For the same molecule, the viability, T/C [10] was 95.7%, the viability, T/C [11] was 96.5% and the viability, T/C [12] was 64.2%. For the same molecule, the viability, T/C [13] was 94%, the viability, T/C [14] was 79.4% and the viability, T/C [15] was 86.6%. It also gave a viability, T/C [16] of 95.8%, a viability, T/C [17] of 93% and a viability, T/C [18] of 61.5%. For the same molecule, the viability, T/C [19] was 74.8%, the viability, T/C [20] was 83.4% and the viability, T/C [21] was 87.4%. It also gave a viability, T/C [22] of 89.7%, a viability, T/C [23] of 81.2% and a viability, T/C [24] of 57%. For the same molecule, the viability, T/C [25] was 84.7%, the viability, T/C [26] was 80.9% and the viability, T/C [27] was 73%. It also gave a viability, T/C [28] of 72.2%, a viability, T/C [29] of 70.7% and a viability, T/C [30] of 46.6%. For the same molecule, the viability, T/C [31] was 75.3%, the viability, T/C [32] was 71.6% and the viability, T/C [33] was 61.9%. It also gave a viability, T/C [34] of 52.1%, a viability, T/C [35] of 38.8% and a viability, T/C [36] of 24.8%.

Work on `C#Cc1c(F)ccc2cc(O)cc(-c3ncc4c(N5CC6CCC(C5)N6)nc(OCC56CCCN5CC(F)C6)nc4c3F)c12` (stereo not drawn) + CN(C)c1ccc(Nc2c3ccc(NC(=O)CCN4CCCC4)cc3nc3cc(NC(=O)CCN4CCCC4)ccc23)cc1 yielded a pIC50 (second compound 0.0316 µM) of 5.28, a pIC50 (second compound 0.1 µM) of 5.13 and a pIC50 (second compound 0.316 µM) of 5.61. It also gave a pIC50 (second compound 1 µM) of 5.34, a pIC50 (second compound 3.16 µM) of 5.80 and a pIC50 (second compound 10 µM) of 5.77. The viability, T/C [1] was 100%, the viability, T/C [2] was 93.3% and the viability, T/C [3] was 73.5%. It also gave a viability, T/C [4] of 73.8%, a viability, T/C [5] of 57.2% and a viability, T/C [6] of 40.8%. The viability, T/C [7] was 107%, the viability, T/C [8] was 102% and the viability, T/C [9] was 88.1%. It also gave a viability, T/C [10] of 66.3%, a viability, T/C [11] of 58.1% and a viability, T/C [12] of 46.6%. It also gave a viability, T/C [13] of 93.6%, a viability, T/C [14] of 83.9% and a viability, T/C [15] of 68.7%. For the same molecule, the viability, T/C [16] was 57.1%, the viability, T/C [17] was 49.6% and the viability, T/C [18] was 38.6%. It also gave a viability, T/C [19] of 75.5%, a viability, T/C [20] of 82.8% and a viability, T/C [21] of 77.2%. It also gave a viability, T/C [22] of 61.3%, a viability, T/C [23] of 61.1% and a viability, T/C [24] of 34.1%. For the same molecule, the viability, T/C [25] was 88.2%, the viability, T/C [26] was 81.6% and the viability, T/C [27] was 73.3%. It also gave a viability, T/C [28] of 51.3%, a viability, T/C [29] of 45.2% and a viability, T/C [30] of 31%. For the same molecule, the viability, T/C [31] was 80.7%, the viability, T/C [32] was 86.6% and the viability, T/C [33] was 62.8%. The viability, T/C [34] was 56.3%, the viability, T/C [35] was 45% and the viability, T/C [36] was 19%.
